According to ChEMBL document CHEMBL5104111, “Boron-Containing heterocycles as promising pharmacological agents” (Bioorg Med Chem, 2022):
Converted amounts (≈) assume the structure as drawn.

How the values were obtained:
[1] = test system: LN-229; assay: Anticancer activity against human LN-229 cells assessed as cell growth inhibition by trypan blue exclusion assay; type: functional, cell-based
[2] = test system: Mycolicibacterium smegmatis; assay: Antibacterial activity against Mycobacterium smegmatis assessed as bacterial growth inhibition; type: functional
[3] = test system: A549; assay: Cytotoxicity against human A549 cells assessed as cell growth inhibition; type: functional
[4] = test system: Mycolicibacterium smegmatis; assay: Antibacterial activity against Mycobacterium smegmatis ATCC 700084 assessed as bacterial growth inhibition incubated for 72 hrs by broth microdilution method; type: functional
[5] = test system: Escherichia coli; assay: Antibacterial activity against Escherichia coli ATCC 25922 assessed as bacterial growth inhibition incubated for 72 hrs by broth microdilution method; type: functional
[6] = test system: Mycobacterium tuberculosis; assay: Antibacterial activity against Mycobacterium tuberculosis H37Rv ATCC 27294 assessed as bacterial growth inhibition by radiometry method; type: functional
[7] = Protein binding in human serum; type: ADME, cell-free; details: read-out: PB (converted)
[8] = test system: HepG2; assay: Cytotoxicity against human HepG2 cells assessed as cell growth inhibition incubated for 72 hrs by Cell Titer Glo assay; type: functional, cell-based; details: HepG2, 72 h
[9] = Protein binding in mouse plasma; type: ADME, cell-free; details: read-out: PB (converted)
[10] = test system: Mycobacterium tuberculosis; assay: Antibacterial activity against Mycobacterium tuberculosis H37Rv ATCC 25618 assessed as bacterial growth inhibition incubated for 5 days by fluorescence based assay; type: functional, organism-based; details: H37Rv ATCC 25618, 120 h
[11] = test system: Bacillus cereus; assay: Antibacterial activity against Bacillus cereus assessed as bacterial growth inhibition at 100 ug incubated for 48 hrs by disk diffusion method; type: functional; details: read-out: IZ
[12] = test system: Aspergillus niger; assay: Antifungal activity against Aspergillus niger ATCC 20408 assessed as fungal growth inhibition by plate colony counting method; type: functional
[13] = test system: MDA-MB-231; assay: Anticancer activity against human MDA-MB-231 cells assessed as cell growth inhibition incubated for 72 hrs by MTT assay; type: functional, cell-based; details: MDA-MB-231, 72 h
[14] = test system: MIA PaCa-2; assay: Anticancer activity against human MIA PaCa-2 cells assessed as cell growth inhibition incubated for 72 hrs by MTT assay; type: functional, cell-based; details: MIA PaCa-2, 72 h
[15] = test system: Prototheca zopfii; assay: Antimicrobial activity against Prototheca zopfii assessed as microbial growth inhibition by CLSI protocol based assay; type: functional
[16] = test system: Klebsiella aerogenes; assay: Antibacterial activity against Enterobacter aerogenes ATCC 13048 assessed as bacterial growth inhibition at 10 mg/ml by hollow agar method; type: functional; details: read-out: IZ
[17] = test system: Escherichia coli; assay: Antibacterial activity against Escherichia coli assessed as bacterial growth inhibition; type: functional
[18] = test system: Aspergillus niger; assay: Antifungal activity against Aspergillus niger ATCC 16404 assessed as fungal growth inhibition by broth microdilution method; type: functional
[19] = test system: Candida albicans; assay: Antifungal activity against Candida albicans ATCC 14053 assessed as fungal growth inhibition by broth microdilution method; type: functional
[20] = test system: Fusarium oxysporum; assay: Antifungal activity against Fusarium oxysporum VKM F-140 assessed as fungal growth inhibition by broth microdilution method; type: functional
[21] = test system: Vanrija humicola; assay: Antifungal activity against Cryptococcus humicola ATCC 9949 assessed as fungal growth inhibition by broth microdilution method; type: functional
[22] = test system: Aspergillus niger; assay: Antifungal activity against Aspergillus niger assessed as fungal growth inhibition at 25 ug incubated for 48 hrs by disk diffusion method; type: functional; details: read-out: IZ
[23] = test system: Aspergillus niger; assay: Antifungal activity against Aspergillus niger assessed as fungal growth inhibition at 50 ug incubated for 96 hrs by disk diffusion method; type: functional; details: read-out: IZ
[24] = test system: Candida albicans; assay: Antifungal activity against Candida albicans assessed as fungal growth inhibition at 25 ug incubated for 48 hrs by disk diffusion method; type: functional; details: read-out: IZ
[25] = test system: Verticillium dahliae; assay: Antifungal activity against Verticillium dahliae assessed as fungal growth inhibition at 50 ug incubated for 96 hrs by disk diffusion method; type: functional; details: read-out: IZ
[26] = test system: Pseudomonas aeruginosa; assay: Antibacterial activity against Pseudomonas aeruginosa assessed as bacterial growth inhibition by broth microdilution method; type: functional
[27] = test system: Streptococcus mutans; assay: Antibiofilm activity against Streptococcus mutans ATCC 27351 assessed as bacterial viability at 0.9 uM by SYTO/PI staining based inverted microscopy relative to control; type: functional
[28] = test system: Streptococcus mutans; assay: Antibiofilm activity against Streptococcus mutans ATCC 27351 assessed as bacterial viability at 0.2 uM by SYTO/PI staining based inverted microscopy relative to control; type: functional
[29] = Cmax in rat at 25 mg/kg, po; type: ADME, organism-based; set-up: dose 25 mg/kg, route po; details: in vivo
[30] = AUC (0 to 24 hrs) in rat at 25 mg/kg, po; type: ADME, organism-based; set-up: time < 24 hr, dose 25 mg/kg, route po; details: in vivo
[31] = Half life in C57BL/6 mouse at 30 mg/kg, po qd via gavage measured for 0.25 to 24 hrs post dose by LC-MS/MS analysis; type: ADME, organism-based; details: in vivo, time 0.25-24 hrs
[32] = AUC (0 to 24 hrs) in C57BL/6 mouse at 30 mg/kg, po qd via gavage measured for 0.25 to 24 hrs post dose by LC-MS/MS analysis; type: ADME, organism-based; set-up: dose 30 mg/kg, time 0.25-24 hrs, route po; details: in vivo
[33] = test system: Mycobacterium tuberculosis; assay: Antibacterial activity against Mycobacterium tuberculosis H37Rv infected in C57BL/6J mouse model of acute TB infection administered once daily for 8 days and measured after 24 hrs; type: functional; details: 216 h, time 9 day
[34] = Dose normalized AUC (0 to 24 hrs) in C57BL/6 mouse at 30 mg/kg, po qd via gavage measured for 0.25 to 24 hrs post dose by LC-MS/MS analysis; type: ADME, organism-based; details: in vivo, time 0.25-24 hrs
[35] = Dose normalized AUC (0 to infinity) in C57BL/6 mouse at 5.5 mg/kg, iv qd measured for 0.083 to 24 hrs post dose by LC-MS/MS analysis; type: ADME, organism-based; details: in vivo, time 0.083-24 hrs
[36] = test system: Aspergillus niger; assay: Antifungal activity against Aspergillus niger assessed as fungal growth inhibition incubated for 48 hrs by agar diffusion method; type: functional; details: Aspergillus niger

SMILES: CC(C)[C@@H]1[NH2+][B-](c2ccc(F)cc2F)(c2ccc(F)cc2F)OC1=O
- IC50 [1]: 49 µM

SMILES: O=C(NCCOCCOCCNC(=O)c1ccc2c(c1)B(O)OC2)c1ccc2c(c1)COB2O
- MIC [2]: 0.78 µM
- MIC99 [3]: > 10 µM

SMILES: NC(=O)N1N=Cc2ccccc2B1O
- MIC [4]: 2 µg/mL (≈ 10.6 µM)
- MIC [5]: 16 µg/mL (≈ 84.7 µM)

SMILES: OB1c2ccccc2NC(=S)N1c1ccccc1
- MIC [6]: 8 µg/mL (≈ 31.5 µM)

SMILES: CCS(=O)(=O)N1N=Cc2ccc(Oc3ccc(C(F)(F)F)cc3/C=N/O)cc2B1O
- fraction unbound [7]: 0.12
- IC50 [8]: > 100 µM
- fraction unbound [9]: 0.015
- IC50 [10]: 0.09 µM

SMILES: CCNC(=S)N1N=Cc2c(F)cccc2B1O
- zone of inhibition at 100 µg/disc [11]: 3.4 mm

SMILES: Clc1cccc(B2NC(c3ccccc3)=NO2)c1
- MIC [12]: 0.09 µM (≈ 0.0231 µg/mL)

SMILES: O=C(NCCCOCCOCCOCCCNC(=O)c1ccc2c(c1)B(O)OC2)c1ccc2c(c1)COB2O
- MIC [2]: 1.56 µM
- MIC99 [3]: > 5 µM

SMILES: OB1OCc2ccc(NCc3cc4ccccc4cc3Cl)cc21
- IC50 [13]: 11.9 µM
- IC50 [14]: 2.7 µM

SMILES: O=[N+]([O-])c1ccc([N+]2=C(c3ccccc3)C=C(C(Cl)(Cl)Cl)O[B-]2(F)F)cc1
- MIC [15]: 0.3 µg/mL (≈ 0.692 µM)

SMILES: CCN(CC)c1ccc(B2Oc3ccc(C(C)(C)C)cc3O2)cc1
- zone of inhibition at 10000 µg/mL [16]: 30.3 mm

SMILES: CC1=NN2B(OB3c4ccccc4C(C)=NN3C2=O)c2ccccc21
- MIC [17]: 32 µg/mL (≈ 97.6 µM)

SMILES: C[C@@H]1[C@H](O)[C@@H](C)/C=C/C=C/C=C/C=C/C=C/C=C/C=C/[C@H](O[C@@H]2O[C@H](C)[C@@H](O)[C@H](NS(=O)(=O)c3ccc4c(c3)OB(O)C4)[C@@H]2O)C[C@@H]2O[C@](O)(C[C@@H](O)C[C@@H](O)[C@H](O)CC[C@@H](O)C[C@@H](O)CC(=O)O[C@H]1C)C[C@H](O)[C@H]2C(=O)O
- MIC [18]: 0.25 µg/mL (≈ 0.223 µM)
- MIC [19]: 0.25 µg/mL (≈ 0.223 µM)
- MIC [20]: 0.25 µg/mL (≈ 0.223 µM)
- MIC [21]: 0.25 µg/mL (≈ 0.223 µM)

SMILES: C[C@@H]1[C@H](O)[C@@H](C)/C=C/C=C/C=C/C=C/C=C/C=C/C=C/[C@H](O[C@@H]2O[C@H](C)[C@@H](O)[C@H](NC(=O)CCc3ccc4c(c3)OB(O)C4)[C@@H]2O)C[C@@H]2O[C@](O)(C[C@@H](O)C[C@@H](O)[C@H](O)CC[C@@H](O)C[C@@H](O)CC(=O)O[C@H]1C)C[C@H](O)[C@H]2C(=O)O
- MIC [18]: 0.5 µg/mL (≈ 0.45 µM)
- MIC [19]: 0.5 µg/mL (≈ 0.45 µM)
- MIC [20]: 0.5 µg/mL (≈ 0.45 µM)
- MIC [21]: 0.5 µg/mL (≈ 0.45 µM)

SMILES: NC(=S)N1N=Cc2ccccc2B1O
- zone of inhibition at 25 µg/disc [22]: 7 mm
- MIC [4]: 4 µg/mL (≈ 19.5 µM)
- zone of inhibition at 50 µg/disc [23]: 3.1 mm
- zone of inhibition at 25 µg/disc [24]: 6 mm
- MIC [5]: 16 µg/mL (≈ 78 µM)
- zone of inhibition at 50 µg/disc [25]: 3.7 mm

SMILES: Clc1ccc(-c2noc3c2COB(c2ccc(Br)cc2)OC3)cc1
- MIC [26]: 25 µg/mL (≈ 61.8 µM)

SMILES: O=C(NCCNC(=O)c1ccc2c(c1)B(O)OC2)c1ccc2c(c1)B(O)OC2
- MIC [2]: 0.78 µM
- MIC99 [3]: > 5 µM

SMILES: Brc1cccc(B2NC(c3ccccc3)=NO2)c1
- MIC [12]: 0.08 µM (≈ 0.0241 µg/mL)

SMILES: O=[N+]([O-])c1cccc(B2NC(c3ccccc3)=NO2)c1
- MIC [12]: 0.09 µM (≈ 0.024 µg/mL)

SMILES: COc1ccc(CN(C(=O)Nc2ccccc2)c2ccc3c(c2)B(O)OC3)cc1
- IC50 [13]: 11.5 µM
- IC50 [14]: 8.3 µM

SMILES: O=C(c1ccncc1)N1N=Cc2ccccc2B1OB1c2ccccc2C=NN1C(=O)c1ccncc1
- MIC [17]: 4 µg/mL (≈ 8.26 µM)
- MIC [2]: 32 µg/mL

SMILES: CC1(C)COB(c2ccccc2)N1
- Activity [27]: 60%

SMILES: CCCCB1NC(C)(C)CO1
- Activity [28]: 40%

SMILES: CC1(C)OB(O)c2cc(NC(=O)c3ccc(F)cc3C(F)(F)F)ccc21 [ACOZIBOROLE]
- Cmax [29]: > 10000 ng/mL
- AUC(0-t) at 24 h [30]: > 100000 ng·h/mL

SMILES: NC[C@H]1OB(O)c2c(OCCO)ccc(Cl)c21 [GANFEBOROLE]
- half-life [31]: 3.6 h
- AUC [32]: 88200 ng·h/mL
- ED99 [33]: 0.4 mg/kg
- AUC/dose [34]: 2.94 µg·h/mL
- AUC/dose [35]: 2.03 µg·h/mL

SMILES: OB1OCc2cc(F)ccc21 [TAVABOROLE]
- MIC [36]: 2 µg/mL (≈ 13.2 µM)
